Data reported in patent US10899758B2, “Inhibitors of the menin-MLL interaction” (Vitae Pharmaceuticals, LLC, priority 2016, dated 2021).
Read-outs that look alike come from different tables or passages of the source.

What was measured:
[1] = biological target: T1, menin/MLL binding (biotinylated wild-type or mutated menin and MLL-AF9 fusion protein) (Homo sapiens, UniProt O00255); experiment: Assay 1 (Binding Assay): AlphaLISA menin/MLL binding; conditions: 5 nM biotinylated menin, MLL-AF9-FLAG lysate
T1 construct: biotinylated (1) wild-type menin or (2) mutated menin (described in Nature (2012) Vol. 482, pp. 542-548); fused on or other part: Biotin attached chemically (Sulfo-NHS-Biotin); no fused second protein is printed for menin
T1 sequence (O00255 1-459 limits assumed): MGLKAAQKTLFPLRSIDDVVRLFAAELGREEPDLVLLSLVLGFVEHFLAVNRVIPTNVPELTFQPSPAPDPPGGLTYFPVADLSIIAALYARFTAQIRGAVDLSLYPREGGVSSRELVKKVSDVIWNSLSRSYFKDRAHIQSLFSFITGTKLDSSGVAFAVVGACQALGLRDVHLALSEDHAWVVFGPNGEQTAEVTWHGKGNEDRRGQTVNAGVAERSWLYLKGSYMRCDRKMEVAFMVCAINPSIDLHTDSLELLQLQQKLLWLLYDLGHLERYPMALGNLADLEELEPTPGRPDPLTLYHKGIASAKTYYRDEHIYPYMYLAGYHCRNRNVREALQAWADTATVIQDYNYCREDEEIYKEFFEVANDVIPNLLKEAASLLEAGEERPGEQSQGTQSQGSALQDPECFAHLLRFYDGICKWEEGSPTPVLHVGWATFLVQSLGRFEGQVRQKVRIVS
Method in brief: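 Biotinylated E. coli-expressed menin (wild-type or mutant), 5 nM, incubated 30 min RT with compound and HEK293 lysate of MLL1-1,396–AF9-FLAG in pH 7.4 Tris buffer, 5% DMSO, 1 mM DTT. Anti-FLAG acceptor and streptavidin donor beads added, 60 min RT, AlphaLISA signal read. IC50 from four-parameter fit of % inhibition.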

[2] = test system: human acute monocytic leukemia cell line MV-4-11; experiment: Assay 2 (Cell Proliferation Assay), ATP quantitation (CellTiter-Glo); type: cell-based; conditions: MV-4-11 cells, read-out: Assay 2 (EC50, inhibition of cell proliferation)
Protocol: Potencies of inhibitor compounds against cell proliferation was assessed against the human acute monocytic leukemia cell line MV-4-11 (ATCC® CRL-9591™) based on ATP quantitation. MV-4-11 cells or toxicity control HL-60 cells (ATCC® CCL-240™) were incubated in 96-well tissue culture plates (1.67×10^4 cells in 200 μL culture media containing 10% FBS per well) with or without test compound for 72 h at 37° C., 5% CO2. After incubation, each well was mixed by pipetting and 95 μL from each well was transferred to a well in 96-well black OptiPlate® plates (PerkinElmer). An equal volume of CellTiter-Glo® Luminescent Cell Viability Assay reagent (Promega) was added to each well, followed by mixing for 5 min on an orbital plate shaker. Luminescence was measured on a Wallac EnVision 2104 Multilabel Reader (PerkinElmer) to quantitate ATP. Percent inhibition of cell proliferation by test compounds was calculated based on uninhibited cell growth (DMSO) versus cells treated with a potent menin inhibitor at a concentration yielding at least 100×LD50.

Row | Compound | IC50 [1] | EC50 ([2]; Homo sapiens, MV4-11, 72 h) | EC50 ([2]; 72 h)
1 | CC(C)N(C)C(=O)c1cc(F)ccc1-n1cc(C2CCN(CC[C@H]3CC[C@H](NS(C)(=O)=O)CC3)CC2)c2ccncc21 [Example 19, 5-fluoro-N-isopropyl-N-methyl-2-(3-(1-(2-(trans-4-(methylsulfonamido)cyclohexyl)ethyl)piperidin-4-yl)-1H-pyrrolo[2,3-c]pyridin-1-yl)benzamide] | < 100 nM | < 100 nM | 
2 | CC(=O)N[C@H]1CC[C@H](CN2CCC(c3cn(-c4ccc(F)cc4C(=O)N(C)C(C)C)c4cnccc34)CC2)CC1 [Example 20, 2-(3-(1-(((1r,4r)-4-acetamidocyclohexyl)methyl)piperidin-4-yl)-1H-pyrrolo[2,3-c]pyridin-1-yl)-5-fluoro-N-isopropyl-N-methylbenzamide] | < 100 nM | 100 to 1000 nM | 
3 | CC(C)N(C)C(=O)c1cc(F)ccc1-n1cc(C2CCN(C[C@H]3CC[C@H](NS(C)(=O)=O)CC3)CC2)c2ccncc21 [Example 21, 5-fluoro-N-isopropyl-N-methyl-2-(3-(1-((trans-4-(methylsulfonamido)cyclohexyl)methyl)piperidin-4-yl)-1H-pyrrolo[2,3-c]pyridin-1-yl)benzamide] | < 100 nM | 100 to 1000 nM | 
4 | CC(C)N(C)C(=O)c1cc(F)ccc1-n1cc(C2CCN(Cc3ccc(NS(C)(=O)=O)cc3)CC2)c2ccncc21 [Example 23, 5-fluoro-N-isopropyl-N-methyl-2-(3-(1-(4-(methylsulfonamido)benzyl)piperidin-4-yl)-1H-pyrrolo[2,3-c]pyridin-1-yl)benzamide] | < 100 nM | ≥ 1000 nM | 
5 | CC(C)N(C)C(=O)c1cc(F)ccc1-n1cc(C2CCN(CCc3ccc(S(C)(=O)=O)cc3)CC2)c2ccncc21 [Example 24, 5-fluoro-N-isopropyl-N-methyl-2-(3-(1-(4-(methylsulfonyl)phenethyl)piperidin-4-yl)-1H-pyrrolo[2,3-c]pyridin-1-yl)benzamide] | < 100 nM | 100 to 1000 nM | 
6 | CNC(=O)c1cccc(CCN2CCC(c3cn(-c4ccc(F)cc4C(=O)N(C)C(C)C)c4cnccc34)CC2)c1 [Example 26, 5-fluoro-N-isopropyl-N-methyl-2-(3-(1-(3-(methylcarbamoyl)phenethyl)piperidin-4-yl)-1H-pyrrolo[2,3-c]pyridin-1-yl)benzamide] | < 100 nM | 100 to 1000 nM | 
7 | CC(C)N(C)C(=O)c1cc(F)ccc1-n1cc(C2CCN(C[C@H]3CC[C@H](O)CC3)CC2)c2ccncc21 [Example 27, trans-(5-fluoro-2-(3-(1-((4-hydroxycyclohexyl)methyl)piperidin-4-yl)-1H-pyrrolo[2,3-c]pyridin-1-yl)-N-isopropyl-N-methylbenzamide)] | < 100 nM | ≥ 1000 nM | 
8 | CC(C)N(C)C(=O)c1cc(F)ccc1-n1cc(C2CCN(C[C@H]3CC[C@@H](O)CC3)CC2)c2ccncc21 [Example 27A, cis-(5-fluoro-2-(3-(1-((4-hydroxycyclohexyl)methyl)piperidin-4-yl)-1H-pyrrolo[2,3-c]pyridin-1-yl)-N-isopropyl-N-methylbenzamide)] | < 100 nM | ≥ 1000 nM | 
9 | CC(C)N(C)C(=O)c1cc(F)ccc1-n1cc(C2CCN(CCC3CCN(S(C)(=O)=O)CC3)CC2)c2ccncc21 [Example 28, 5-fluoro-N-isopropyl-N-methyl-2-(3-(1-(2-(1-(methylsulfonyl)piperidin-4-yl)ethyl)piperidin-4-yl)-1H-pyrrolo[2,3-c]pyridin-1-yl)benzamide] | < 100 nM | 100 to 1000 nM | 
10 | CC(C)N(C)C(=O)c1cc(F)ccc1-n1cc(C2CCN(CCc3ccc(C(C)(C)C#N)cc3)CC2)c2ccncc21 [Example 29, 2-(3-(1-(4-(2-cyanopropan-2-yl)phenethyl)piperidin-4-yl)-1H-pyrrolo[2,3-c]pyridin-1-yl)-5-fluoro-N-isopropyl-N-methylbenzamide] | < 100 nM | 100 to 1000 nM | 
11 | CC(c1ccccc1)N1CCC(c2cn(-c3ccc(F)cc3C(=O)N(C)C(C)C)c3cnccc23)CC1 (centres unmarked) [Example 30, 5-fluoro-N-isopropyl-N-methyl-2-(3-(1-(1-phenylethyl)piperidin-4-yl)-1H-pyrrolo[2,3-c]pyridin-1-yl)benzamide] | < 100 nM | 100 to 1000 nM | 
12 | CC(C)N(C)C(=O)c1cc(F)ccc1-n1cc(C2CCNC(Cc3ccccc3)C2)c2ccncc21 (centres unmarked) [Example 31, 2-(3-(2-benzylpiperidin-4-yl)-1H-pyrrolo[2,3-c]pyridin-1-yl)-5-fluoro-N-isopropyl-N-methylbenzamide] | < 100 nM | < 100 nM | 
13 | CCN(C(=O)c1cc(F)ccc1-n1cc(C2CCN(Cc3ccccc3)CC2)c2ccncc21)C(C)C [Example 32, 2-(3-(1-benzylpiperidin-4-yl)-1H-pyrrolo[2,3-c]pyridin-1-yl)-N-ethyl-5-fluoro-N-isopropylbenzamide] | < 100 nM | < 100 nM | 
14 | CC(C)N(C(=O)c1cc(F)ccc1-n1cc(C2CCN(Cc3ccccc3)CC2)c2ccncc21)C(C)C [Example 33, 2-(3-(1-benzylpiperidin-4-yl)-1H-pyrrolo[2,3-c]pyridin-1-yl)-5-fluoro-N,N-diisopropylbenzamide] | < 100 nM | < 100 nM | 
15 | CS(=O)(=O)N[C@H]1CC[C@H](CCN2CCC(c3cn(-c4ccc(F)cc4OCC4CC4)c4cnccc34)CC2)CC1 [Example 34, N-(trans-4-(2-(4-(1-(2-(cyclopropylmethoxy)-4-fluorophenyl)-1H-pyrrolo[2,3-c]pyridin-3-yl)piperidin-1-yl)ethyl)cyclohexyl)methanesulfonamide] | < 100 nM | 100 to 1000 nM | 
16 | CC(C)N(CCO)C(=O)c1cc(F)ccc1-n1cc(C2CCN(Cc3ccccc3)CC2)c2ccncc21 [Example 36, 2-(3-(1-benzylpiperidin-4-yl)-1H-pyrrolo[2,3-c]pyridin-1-yl)-5-fluoro-N-(2-hydroxyethyl)-N-isopropylbenzamide] | < 100 nM | < 100 nM | 
17 | Cc1c(CN2CCC(c3cn(-c4ccc(F)cc4)c4cnccc34)CC2)ccc2[nH]c(C#N)cc12 [Example 37, 5-((4-(1-(4-fluorophenyl)-1H-pyrrolo[2,3-c]pyridin-3-yl)piperidin-1-yl)methyl)-4-methyl-1H-indole-2-carbonitrile] | < 100 nM | 100 to 1000 nM | 
18 | Cc1c(CN2CCC(c3cn(-c4ccc(F)cc4CC(C)C)c4cnccc34)CC2)ccc2[nH]c(C#N)cc12 [Example 42, 5-((4-(1-(4-fluoro-2-isobutylphenyl)-1H-pyrrolo[2,3-c]pyridin-3-yl)piperidin-1-yl)methyl)-4-methyl-1H-indole-2-carbonitrile] | < 100 nM | 100 to 1000 nM | 
19 | CC(C)N(C)C(=O)c1cc(F)ccc1-n1cc(C2CCCN(Cc3ccc4[nH]c(=O)[nH]c4c3)C2)c2ccncc21 (centres unmarked) [Example 43, 5-fluoro-N-isopropyl-N-methyl-2-(3-(1-((2-oxo-2,3-dihydro-1H-benzo[d]imidazol-5-yl)methyl)piperidin-3-yl)-1H-pyrrolo[2,3-c]pyridin-1-yl)benzamide] | < 100 nM | < 100 nM | 
20 | CC(C)N(C)C(=O)c1cc(F)ccc1-n1cc(C2CCCN(Cc3ccc4c(c3)[nH]c(=O)n4CCO)C2)c2ccncc21 (centres unmarked) [Example 44, 5-fluoro-2-(3-(1-((1-(2-hydroxyethyl)-2-oxo-2,3-dihydro-1H-benzo[d]imidazol-5-yl)methyl)piperidin-3-yl)-1H-pyrrolo[2,3-c]pyridin-1-yl)-N-isopropyl-N-methylbenzamide] | < 100 nM |  | < 100 nM
21 | CC(C)N(C)C(=O)c1cc(F)ccc1-n1cc(C2CCCN(Cc3ccccc3)C2)c2ccncc21 (centres unmarked) [Example 45, 2-(3-(1-benzylpiperidin-3-yl)-1H-pyrrolo[2,3-c]pyridin-1-yl)-5-fluoro-N-isopropyl-N-methylbenzamide] | < 100 nM | 100 to 1000 nM | 
22 | CC(C)N(C)C(=O)c1cc(F)ccc1-n1cc(C2CCCN(CC3CCCCC3)C2)c2ccncc21 (centres unmarked) [Example 46, 2-(3-(1-(cyclohexylmethyl)piperidin-3-yl)-1H-pyrrolo[2,3-c]pyridin-1-yl)-5-fluoro-N-isopropyl-N-methylbenzamide] | < 100 nM | 100 to 1000 nM | 
